From patent US9598423B2 (BRISTOL-MYERS SQUIBB COMPANY, priority 2013, dated 2017)

Columns and labels:
CK1δ = CK1δ (Homo sapiens (Human), UniProt P48730); assay: CK1δ kinase assay (Caliper LABCHIP electrophoretic separation of fluoresceinated peptide substrate and product); type: biochemical; conditions: 200 pM CK1δ, 50 μM ATP, 1.5 μM peptide substrate, 22 hours at room temperature; read-out: CK1δ (IC50)
How it was run: (§1)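 Each reaction was incubated 22 hours at room temperature and terminated with EDTA. Read-out was microfluidic electrophoretic separation of fluoresceinated substrate and phospho-product.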

CK1ε = CK1ε (Homo sapiens (Human), UniProt P49674); assay: CK1ε kinase assay (Caliper LABCHIP electrophoretic separation of fluoresceinated peptide substrate and product); type: biochemical; conditions: 200 pM CK1ε, 50 μM ATP, 1.5 μM peptide substrate, 22 hours at room temperature; read-out: CK1ε (IC50)
Sequence of CK1ε (P49674 whole entry): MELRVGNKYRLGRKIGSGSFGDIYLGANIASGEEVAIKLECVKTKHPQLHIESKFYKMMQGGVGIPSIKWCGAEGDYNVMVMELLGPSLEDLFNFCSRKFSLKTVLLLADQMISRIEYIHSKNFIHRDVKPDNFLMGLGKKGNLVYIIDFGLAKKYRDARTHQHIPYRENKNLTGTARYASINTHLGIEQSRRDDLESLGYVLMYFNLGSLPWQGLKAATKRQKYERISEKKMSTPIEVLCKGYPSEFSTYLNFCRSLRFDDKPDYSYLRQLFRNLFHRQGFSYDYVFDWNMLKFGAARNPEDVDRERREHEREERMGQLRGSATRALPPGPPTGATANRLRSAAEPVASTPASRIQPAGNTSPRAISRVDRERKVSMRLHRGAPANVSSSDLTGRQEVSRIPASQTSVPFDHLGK
How it was run: as §1

Sequence of CK1δ (P48730 whole entry): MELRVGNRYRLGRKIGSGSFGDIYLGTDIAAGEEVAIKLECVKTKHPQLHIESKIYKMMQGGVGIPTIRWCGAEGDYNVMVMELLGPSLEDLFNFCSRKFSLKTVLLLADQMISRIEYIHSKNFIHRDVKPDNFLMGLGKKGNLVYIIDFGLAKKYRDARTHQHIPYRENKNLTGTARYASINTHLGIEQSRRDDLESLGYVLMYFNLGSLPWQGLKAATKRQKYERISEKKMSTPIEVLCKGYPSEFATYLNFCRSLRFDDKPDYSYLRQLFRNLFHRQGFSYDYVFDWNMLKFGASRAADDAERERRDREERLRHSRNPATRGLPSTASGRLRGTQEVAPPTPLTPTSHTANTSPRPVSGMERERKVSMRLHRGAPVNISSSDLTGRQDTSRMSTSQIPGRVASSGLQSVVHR

| Molecule | IC50 (CK1δ) | IC50 (CK1ε) |
| --- | --- | --- |
| N#Cc1ccc(NC(=O)N2Cc3c(C(N)=O)c(-c4cccc(F)c4)nn3C3(CC3)C2)cc1 [Compound A87, N^5′-(4-Cyanophenyl)-2′-(3-fluorophenyl)-4′H-spiro[cyclopropane-1,7′-pyrazolo[1,5-a]pyrazine]-3′,5′(6′H)-dicarboxamide] | 0.01 to 10 nM | 0.01 to 10 nM |
| N#Cc1ccc(NC(=O)N2Cc3c(C(N)=O)c(-c4ccc(F)c(Cl)c4)nn3C3(COC3)C2)cc1 [Compound A88, 2′-(3-Chloro-4-fluorophenyl)-N^5′-(4-cyanophenyl)-4′H-spiro[oxetane-3,7′-pyrazolo[1,5-a]pyrazine]-3′,5′(6′H)-dicarboxamide] | 0.01 to 10 nM | 0.01 to 10 nM |
| CC(=O)N1CC2(C1)CN(C(=O)Nc1ccc(C#N)cc1)Cc1c(C(N)=O)c(-c3ccc(F)c(Cl)c3)nn12 [Compound A89, 1-Acetyl-2′-(3-chloro-4-fluorophenyl)-N^5′-(4-cyanophenyl)-4′H-spiro[azetidine-3,7′-pyrazolo[1,5-a]pyrazine]-3′,5′(6′H)-dicarboxamide] | 0.01 to 10 nM | 0.01 to 10 nM |
| Cc1n[nH]c2c(Cl)cc(-c3nn4c(c3C(N)=O)CN(C(=O)Nc3ccc(C#N)c(Cl)c3)CC4)cc12 [compound 321] | 0.01 to 10 nM | 0.01 to 10 nM |
| Cc1cc(NC(=O)N2CCn3nc(-c4cc(F)c5cnn(C)c5c4)c(C(N)=O)c3C2)ccc1C#N [compound 327] | 0.01 to 10 nM | 0.01 to 10 nM |
| N-(tert-Butyl)-2-(3,4-dichlorophenyl)-7-methyl-6,7-dihydropyrazolo[1,5-a]pyrazine-3,5(4H)-dicarboxamide [Compound A32] | 0.01 to 10 nM | 0.01 to 10 nM |
